Measurements from the CheMixHub viscosity set.

Experiment: xn = mol fraction of the nth substance listed

C[Si]1(C)O[Si](C)(C)O[Si](C)(C)O[Si](C)(C)O1 + CCCCCCCCCCCCCC
viscosity [mPa·s], 103 kPa
Conditions | 298.15 K | 308.15 K | 318.15 K
x1 = 0.05 | 1.944 | 1.605 | 1.347
x1 = 0.1 | 1.905 | 1.579 | 1.327
x1 = 0.15 | 1.881 | 1.56 | 1.312
x1 = 0.2 | 1.859 | 1.536 | 1.293
x1 = 0.25 | 1.853 | 1.523 | 1.282
x1 = 0.3 | 1.843 | 1.527 | 1.287
x1 = 0.35 | 1.833 | 1.52 | 1.281
x1 = 0.4 | 1.831 | 1.518 | 1.278
x1 = 0.45 | 1.82 | 1.509 | 1.274
x1 = 0.5 | 1.815 | 1.507 | 1.273
x1 = 0.55 | 1.817 | 1.51 | 1.275
x1 = 0.6 | 1.824 | 1.515 | 1.279
x1 = 0.65 | 1.831 | 1.522 | 1.285
x1 = 0.7 | 1.844 | 1.533 | 1.294
x1 = 0.7498 | 1.861 | 1.548 | 1.307
x1 = 0.8 | 1.887 | 1.571 | 1.324
x1 = 0.85 | 1.922 | 1.6 | 1.349
x1 = 0.8999 | 1.965 | 1.632 | 1.376
x1 = 0.95 | 2.014 | 1.672 | 1.406

CCNc1ccccc1 + CCCCCCCCCCO
viscosity [mPa·s], 101 kPa
Conditions | 303.15 K | 308.15 K | 313.15 K
x1 = 0.0817 | 7.725 | 7.287 | 6.857
x1 = 0.1745 | 6.632 | 6.215 | 5.818
x1 = 0.2651 | 5.714 | 5.323 | 4.959
x1 = 0.3524 | 4.951 | 4.585 | 4.253
x1 = 0.4321 | 4.345 | 4.002 | 3.697
x1 = 0.5012 | 3.88 | 3.557 | 3.274
x1 = 0.5685 | 3.476 | 3.173 | 2.909
x1 = 0.6325 | 3.131 | 2.845 | 2.6
x1 = 0.6958 | 2.825 | 2.556 | 2.327
x1 = 0.7521 | 2.579 | 2.324 | 2.109
x1 = 0.8012 | 2.382 | 2.14 | 1.937
x1 = 0.8562 | 2.18 | 1.952 | 1.762
x1 = 0.9021 | 2.027 | 1.81 | 1.63
